Data as given in patent publication US11261232B2, “TNFRSF14 / HVEM proteins and methods of use thereof” (MEMORIAL SLOAN KETTERING CANCER CENTER, priority 2015, dated 2022).

System: mouse lymphoma lines (BCL1 and Myc/Bc12)
Assay: qRT-PCR of TNF family cytokines in mouse lymphoma lines
Type: cell-based
Details: solHVEM 10 μg/ml; BCL1 and Myc/Bcl2 lines; 24 hrs
Excerpt: FIG. 5A-I. Abnormal activation of the lymphoid stroma in B-cell lymphomas. FIG. 5A, Immunohistofluorescence staining for the FDC marker CD21/35 and the FRC marker Collagen 1 on control lymphomas (vector) and HVEM knockdown lymphomas (shHVEM) (n=3 for each, scale bars=100 μm); FIG. 5B and FIG. 5C, Systematic quantification of CD21/35 (left) and collagen I (right) staining in control (Vector) and HVEM deficient (shHVEM) lymphomas based on 12 areas in the T-cell zone and 30 areas in the B-cell zone per mice (cumulative number for 3 mice), respectively; ** p<0.01; *** p<0.001 by parametric t-test; FIG. 5D and FIG. 5E, CXCL13 (FIG. 5D) and CCL19 (FIG. 5E) expression by qRT-PCR on control (vector) and HVEM knockdown (shHVEM) lymphomas (mean of four replicates, error bars indicate standard deviation, * p<0.01); FIG. 5F, qRT-PCR measurement of the LTa, LTb, and TNFa mRNA expression in B cells isolated from the spleens of vector and shHVEM mice (n=3); FIG. 5G-I, qRT-PCR measurement of TNFa (FIG. 5G), LTa (FIG. 5H), and LTb (FIG. 5I) in B cell line BCL1 after 24 hrs of treatment with solHVEM (10 μg/ml).
FIG. 12A-F. Analysis of the lymphoid stroma in B cell lymphomas. FIG. 12A, Immunohistofluorescence staining of CD20pos B cells, Transglutaminasepos FRCs, and CD21Lpos FDCs in reactive lymph nodes and two separate human follicular lymphoma tissue specimens; FIG. 12B, Flowchart of the image processing for FRC density (Collagen I); briefly, images were thresholded and transformed to binaries images, then a watershed algorithm was applied and number of polygons evaluated and analyzed by ImageJ software; FIG. 12C, Number of polygons indicates FRC density in control lymphomas (vector) and HVEM knockdown lymphomas showing no difference in FRC contribution. 40 areas were selected in the T cell zone and analyzed per mice (n=3 per each group); FIG. 12D-F, qRT-PCR measurement of TNFa (FIG. 12D), LTa (FIG. 12E), and LTb (FIG. 12F) in mouse B-cell line EuMyc-Bc12. […]

Question: With “solHVEM: Leu39-Val202 soluble HVEM ectodomain polypeptide of SEQ ID NO. 8” as the substance, how does the “expression of LTa” value read?
Answer: readily decreased

Question: What about the “expression of LTb” value of the same substance?
Answer: readily decreased

Question: And the “expression of TNFa” value?
Answer: did not reduce
